For test [1], the system named is DMSO-stimulated, γ-tubulin-independent aster formation. Nature of the test: DMSO-stimulated aster formation in M-phase Xenopus egg extracts. Type of test: biochemical. Particulars: M-phase-arrested Xenopus egg extracts, 5% DMSO, 20 min at 20 °C. The method, then:
(§1) Cytostatic factor (CSF)-arrested M phase Xenopus egg extracts (CSF extracts) were prepared. Briefly, unfertilized eggs were crushed by 10,700g centrifugation for 20 min. M phase extracts were mixed with 0.5 μM Cy3-labelled α/β-tubulin and various concentrations of compounds. After incubation for 30 min on ice, 15 μM RanQ69L, 200 sperm nuclei per μl or 5% DMSO were added and incubated for 30 min on ice. After incubation for 20 min at 20 °C (for the samples with sperm nuclei, the incubation time was 30 min), 1.5 μl sample was fixed with 1.5 μl fix solution (0.3 volume of 37% formaldehyde, 0.6 volume of 80% glycerol and 0.1 vol of 10 × MMR solution (50 mM HEPES, pH 7.8, 1 M NaCl, 20 mM KCl, 10 mM MgCl2, 20 mM CaCl2 and 1 mM EDTA)), followed by the squash fix.
(§2) Images were acquired using a microscope (Axiovert 200 M; Carl Zeiss Inc.) equipped with a plan-Apochromat × 63 NA 1.3 oil objective lens (Carl Zeiss Inc.), a Cy3 emission filter and a Cascade:1 K (Photometrics Inc.) camera, and the AxioVision software (Carl Zeiss Inc.). The aster size and fluorescence intensity were quantified using a macro written in MATLAB[41].

Test [2] addresses T1, human γ-tubulin (Homo sapiens, UniProt P23258).
T1 construct: myc (C); 6His (C); made in house; host or cells: Sf21 insect cells (baculovirus)
The experiment in a line: Tryptophan-based drug-binding assay, γ-tubulin. Particulars: for Ratio of Kd[α/β-tubulin]/Kd[γ-tubulin]: selectivity for γ-tubulin over α/β-tubulin; for Kd: tryptophan fluorescence decrease, 1 μM protein, mean±s.d., three independent experiments. As for the experimental part:
In brief, 0.7 × 10^6 cells ml^−1 were infected with the γ-tubulin baculovirus. After 48 h, cells were collected by centrifugation at […] for 10 min and flash-frozen in liquid nitrogen and stored at −80 °C. Purification was carried out as described with slight modifications. […] Imidazole (final 10 mM) was added and the lysate was centrifuged again at 192,800g for 30 min at 4 °C. […] Ni-NTA Agarose was then washed twice with wash buffer 1 (lysis buffer containing 25 mM imidazole) and wash buffer 2 (50 mM MES pH 6.6, 500 mM KCl, 5 mM MgCl2, 10% glycerol, 10 μM GTP and 1 mM DTT) containing 25 mM imidazole. γ-Tubulin was eluted with wash buffer 2 containing 200 mM imidazole.
Monomeric γ-tubulin was prepared using a size exclusion column HiLoad 16/60 Superdex 200 pre-equilibrated with gel filtration buffer (50 mM MES pH 6.6, 500 mM KCl, 5 mM MgCl2, 1 mM EGTA, 10 μM GTP and 1 mM DTT). The peak fractions representing monomeric γ-tubulin were identified by A280 and confirmed using SDS–PAGE. Protein was concentrated using a Vivaspin concentrator (Sartorius) and supplemented with 10% glycerol, following snap-freezing in liquid nitrogen and storage at −80 °C.
(§3) Gel filtration buffer for γ-tubulin purification (50 mM MES pH 6.6, 500 mM KCl, 5 mM MgCl2, 1 mM EGTA and 1 mM DTT) supplemented with 10% of glycerol was used as an assay buffer. γ-tubulin and α/β-tubulin were diluted in this assay buffer to reach a final protein concentration of 1 μM. A final concentration of 10 μM or 1 mM GTP was added to the samples. Proteins were incubated for 30 min with compounds (final DMSO concentration was 1%; 2% for AG1 and gatastatin). […] Dissociation constants were calculated from fitting curves of decreasing fluorescence (ΔFL) using the GraphPad Prizm software.

For test [3], the system named is γ-tubulin-dependent, RanQ69L-stimulated aster formation. The experiment in a line: RanQ69L-stimulated aster formation in M-phase Xenopus egg extracts. The format is biochemical. The method, then:
as §1, §2

Test [4] deals with T1, human γ-tubulin. Nature of the test: Inhibition of GTP binding of γ-tubulin (α-[32P]-GTP crosslinking assay). To be noted: 60 μM compound; 70 nM γ-tubulin, 100 nM α-[32P]-GTP; mean±s.d. As for the experimental part:
For analysis of the effect of drugs on GTP binding of γ-tubulin, 70 nM of purified human γ-tubulin in GTP-binding buffer (50 mM MES, 5 mM MgCl2, 1 mM EGTA, pH 6.6) was incubated with or without compounds for 15 min at 20 °C. A final concentration of 100 nM of α-[^32P]-GTP was added and incubated at 20 °C for 30 min. After incubation, bound α-[^32P]-GTP was crosslinked to γ-tubulin for 60 s by illumination with a ultraviolet lamp using CL-1000 Ultraviolet Crosslinker. Protein with the crosslinked GTP was separated from unbound nucleotide by TCA precipitation and SDS–PAGE, and ^32P labelling was measured using a Typhoon FLA-7000 (General Electronic Company). Band intensities were quantified with the ImageJ software.

The next test has as its target T2, α/β-tubulin (Sus scrofa, UniProt P02550+P02554).
T2 construct: α/β-Tubulin was purified from porcine brain; from tissue; host or cells: porcine brain
The experiment in a line: Tryptophan-based drug-binding assay, α/β-tubulin. The arrangement: species or system porcine. Particulars: tryptophan fluorescence decrease; 1 μM protein; mean±s.d., three independent experiments. As for the experimental part:
γ-TuSC was purified as described. Briefly, γ-TuSC was expressed in HighFive cells and purified by sequential steps of Ni-NTA (Macherei-Nagel) purification, MonoQ column purification (GE Healthcare) and size exclusion (Superdex 200 column, GE Healthcare)[14]. α/β-Tubulin was purified from porcine brain through four cycles of polymerization and depolymerization using 1 M PIPES buffer (1 M PIPES-KOH, 1 mM EGTA, 1 mM MgCl2, pH 6.8) for effective removal of MT-associated proteins.
as §3

Test [5] has as its system HeLa cells expressing EB3-EGFP (interphase). Nature of the test: EB3-EGFP signal tracking, interphase cells. The format is cell-based, human. Particulars: 15 min; for Track length / Track lifetime / Velocity: interphase HeLa EB3-EGFP, mean±s.d.; for Track numbers: interphase, from a 144-μm^2 area inside the cell. As for the experimental part: A HeLa ‘Kyoto' cell line stably expressing EB3-EGFP (a kind gift from Dr J. Ellenberg) was maintained in DMEM+GlutaMAX (Gibco) supplemented with 10% FBS, 2 mM L-glutamine, 100 U ml^−1 penicillin, 100 μg ml^−1 streptomycin, 1 mM sodium pyruvate and 0.5 mg ml^−1 G418. Cells were seeded into eight-well Lab-Tek chambers (Nunc, Rochester, NY) for 24-h prior imaging. For imaging, the medium was exchanged to Live Cell Imaging Solution (Molecular Probes Life Technologies) supplemented as described above and containing various concentrations of AG1 or gatastatin. Interphase cells were incubated with drugs for 15 min and mitotic cells were treated as described in Fig. 4c. Then, EB3 tracks were observed under a PerkinElmer UltraVIEW ERS Spinning Disk microscope (Software: UltraVIEW ERS Imaging Suite) equipped with a Plan-APOCHROMAT × 100/1.4 Oil DIC objective, a Confocal Scanner Unit (Yokogawa CSU 22), a Hamamatsu EM CCD camera (C9100-50) and a 488-nm Argon laser at 37 °C, and time-lapse sequences were performed for 60 s with a 400-ms interval. Automatic analysis of EB3-EGFP signal tracks was performed with ImageJ (http://imagej.nih.gov/ij/) and Matlab (Mathworks) as described.

The next test has as its system HeLa cells. Nature of the test: Analysis of interphase MT network. Type of test: cell-based, human. Particulars: 30 μM, 2.5 h. The method, then:
HeLa cells were cultured in DMEM containing 10% FBS in a humidified atmosphere containing 5% CO2. After treatment with each compound for 2.5 h (interphase MT network) or 5 h (mitotic spindle), the cells were immediately fixed with cold MeOH (−20 °C). After blocking with PBS containing 0.5% bovine serum albumin, cells were incubated with anti-α-tubulin antibodies (1:500 dilution, Santa Cruz, Cat# sc-32293) to observe interphase cells, or with anti-BubR1 (1:250 dilution, BD Bioscience, Cat# 612502) and anti-α-tubulin (1:250 dilution, MBL, Cat# PM054) antibodies to observe mitotic spindle. After staining with Alexa^488-conjugated anti-mouse IgG (1:2,000 dilution, Invitrogen, Cat#A11001) and Alexa568-conjugated anti-rabbit IgG (1:2000 dilution, Invitrogen, Cat#A11011), cells were washed four times with PBS and mounted with PBS containing 0.1 μg ml^−1 DAPI. MTs and BubR1 signals were observed under a Leica LAS AF 6000 fluorescence microscope (Leica Microsystems) or an LSM 700 laser-scanning confocal microscope (Zeiss).

In test [6] the target is T1, human γ-tubulin. The experiment in a line: GTP binding to recombinant γ-tubulin (UV crosslinking). Particulars: 70 nM γ-tubulin, α-[32P]-GTP. As for the experimental part: Supplementary Figure 2. Binding of GTP and GCP4 to recombinant human γ-tubulin
(a) GTP binding to γ-tubulin. 70 nM of γ-tubulin was mixed with indicated concentrations of α-[32P]-GTP, and cross-linked by UV irradiation. After separation of crosslinked γ-tubulin and unbound α-[32P]-GTP, radioactivity was detected with a phosphorimager. Band intensities were quantified with ImageJ. The Kd (121.1 nM) was calculated using GraphPad Prizm software. (b) Purified human γ-tubulin and GCP4 interaction was detected by gel filtration and SDS-PAGE. Equal volumes of γ-tubulin (1.5 µM) and GCP4 (4 µM), γ-tubulin (1.5 µM) and buffer, or GCP4 (4 µM) and buffer were mixed and incubated for 30 min at 20 °C. Proteins were separated by size exclusion column Superdex 200 10/300 GL pre-equilibrated with gel filtration buffer (50 mM MES pH6.6, 500 mM KCl, 5 mM MgSO4, 1 mM EGTA, 1 mM DTT, 10 µM GTP).
γ-Tubulin alone and GCP4 alone were eluted at retention times of 27 min and 24 min, respectively. The […]
GCP4 and γ-tubulin in these fractions were confirmed by SDS-PAGE and silver staining.
(1 picture or pasted object on this page, not shown here)

These results are taken from PMC4640066 (Nature Communications, 2015).

By IC50 is commonly meant the point on the concentration scale where inhibition reaches its midpoint. A low value points to greater potency in that assay. Broadly, the Kd is the constant that tells how readily two partners part at equilibrium.

Molecules are shown by their SMILES.

T1 sequence (P23258 whole entry): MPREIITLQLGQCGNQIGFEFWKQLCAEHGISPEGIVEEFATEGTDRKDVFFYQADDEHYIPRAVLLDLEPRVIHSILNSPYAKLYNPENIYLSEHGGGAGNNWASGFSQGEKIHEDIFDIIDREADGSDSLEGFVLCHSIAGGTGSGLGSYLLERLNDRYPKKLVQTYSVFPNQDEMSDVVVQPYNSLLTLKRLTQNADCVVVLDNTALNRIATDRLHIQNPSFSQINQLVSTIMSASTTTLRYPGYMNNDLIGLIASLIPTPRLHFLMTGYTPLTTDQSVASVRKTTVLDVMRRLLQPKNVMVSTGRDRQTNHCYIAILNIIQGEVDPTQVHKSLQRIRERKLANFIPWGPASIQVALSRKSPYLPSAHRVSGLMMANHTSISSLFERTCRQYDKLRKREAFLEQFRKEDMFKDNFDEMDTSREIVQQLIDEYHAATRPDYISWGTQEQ
T2 sequence (P02554 whole entry): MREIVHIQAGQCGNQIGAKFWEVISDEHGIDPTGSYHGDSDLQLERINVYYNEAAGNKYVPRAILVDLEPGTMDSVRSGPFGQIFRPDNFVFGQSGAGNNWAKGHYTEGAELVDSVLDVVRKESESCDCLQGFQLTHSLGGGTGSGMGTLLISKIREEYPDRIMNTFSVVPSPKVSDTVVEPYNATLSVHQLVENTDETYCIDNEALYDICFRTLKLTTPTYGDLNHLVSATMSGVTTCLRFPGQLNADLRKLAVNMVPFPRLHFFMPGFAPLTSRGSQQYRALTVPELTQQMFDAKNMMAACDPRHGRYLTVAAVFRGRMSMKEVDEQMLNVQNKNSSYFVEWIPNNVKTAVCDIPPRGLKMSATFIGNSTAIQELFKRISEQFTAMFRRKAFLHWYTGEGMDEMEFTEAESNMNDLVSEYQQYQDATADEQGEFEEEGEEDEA
T2 sequence (P02550 whole entry): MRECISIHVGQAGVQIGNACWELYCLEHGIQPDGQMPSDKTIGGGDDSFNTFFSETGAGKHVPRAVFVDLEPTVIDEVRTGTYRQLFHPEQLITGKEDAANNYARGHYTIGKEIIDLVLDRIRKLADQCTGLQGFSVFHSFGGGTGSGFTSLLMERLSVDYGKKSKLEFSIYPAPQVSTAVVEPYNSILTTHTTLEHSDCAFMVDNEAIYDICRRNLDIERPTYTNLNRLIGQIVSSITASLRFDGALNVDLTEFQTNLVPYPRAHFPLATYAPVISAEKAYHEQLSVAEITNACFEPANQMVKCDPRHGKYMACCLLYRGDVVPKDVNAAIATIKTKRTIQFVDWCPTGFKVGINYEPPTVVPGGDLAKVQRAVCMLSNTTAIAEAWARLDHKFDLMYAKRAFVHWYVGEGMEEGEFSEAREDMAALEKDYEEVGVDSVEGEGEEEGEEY

For the compound `COc1cc2occ(-c3cc(OC)c4c(c3OC)OCO4)c(=O)c2cc1OC` [AG1, glaziovianin A, reference compound], the IC50 in test [1] came out at 1.37 µM. Besides, at human γ-tubulin [2], the “Ratio of Kd[α/β-tubulin]/Kd[γ-tubulin]” value is on record as 0.61 and the Kd worked out at 85.3 ± 22.8 µM. In test [3] (M-phase-arrested Xenopus egg extracts, 15 μM RanQ69L, 20 min at 20 °C), this compound showed an IC50 of 0.44 µM. Further, in test [3] (ratio of IC50 values), the “IC50[DMSO-aster]/IC50[RanQ69L-aster]” value was found to be 3.14. Besides, the “GTP binding (control %)” value at human γ-tubulin [4] is 93.7±11.7%. Further, on α/β-tubulin, binding was characterised by a dissociation constant (Kd) of 51.9 ± 36.4 µM. In test [5] (1 μM), the Track length was 0.73±0.09 μm, the Track lifetime was 3.30 ± 0.57 s, the Velocity is 9.59±1.01 μm min^−1 and the Track numbers was found to be 106±30. In addition, in test [5] (3 μM), the Track length was determined as 0.43±0.07 μm, the Track lifetime was determined as 2.20 ± 0.67 s, the Velocity stood at 7.33±1.23 μm min^−1 and the Track numbers amounted to 110±42. For the same compound, the “Effect on interphase MT network” value with HeLa cells is given as “caused partial depolymerization of interphase MT network”.
Consider `Nc1nc2c(ncn2[C@@H]2O[C@H](COP(=O)(O)OP(=O)(O)OP(=O)(O)O)[C@@H](O)[C@H]2O)c(=O)[nH]1` [GTP], for which the Kd on human γ-tubulin [6] was found to be 0.121 µM.
With `COc1ccc(/C=c2\[nH]c(=O)/c(=C/c3cccc(C(=O)c4ccccc4)c3)[nH]c2=O)cc1` [KPU-406], on human γ-tubulin [2], the “Ratio of Kd[α/β-tubulin]/Kd[γ-tubulin]” value was 0.57 and the Kd stood at 46.1 ± 27.6 µM. This compound also gave a Kd at α/β-tubulin of 26.3 ± 2 µM.
Turning to `COC(=O)Nc1nc2ccc(C(=O)c3cccs3)cc2[nH]1` [Nocodazole], at human γ-tubulin [2], the “Ratio of Kd[α/β-tubulin]/Kd[γ-tubulin]” value came out at 0.03 and the Kd came to 54.9 ± 19 µM. This compound registered a Kd on α/β-tubulin of 1.8 ± 0.6 µM.
For the compound `CC(C)(C)c1[nH]cnc1/C=c1\[nH]c(=O)/c(=C/c2ccccc2)[nH]c1=O` [Plinabulin], the “Ratio of Kd[α/β-tubulin]/Kd[γ-tubulin]” value on human γ-tubulin [2] is 0.01; on human γ-tubulin [2] (listed as plinabulin), below 0.05. In addition, the Kd worked out at 83.3 ± 18.5 µM at human γ-tubulin [2] and 0.5 ± 0.1 µM at α/β-tubulin.
